Experimental data taken from patent EP4382122A1, “PEPTIDE COMPLEX IPF-H2A FOR MODULATION IMMUNE FUNCTION OF THE HUMAN BODY” (Zhabilov, Harry H., priority 2022, dated 2024).
Read-outs that look alike come from different tables or passages of the source.

What was measured:
[1] = system: HSV-1 (Victoria strain); experiment: CPE inhibition test with MTT Assay, HSV-1 in Vero cells; assay type: cell-based, Herpes Simplex virus type 1 (HSV-1)
[2] = system: HSV-1/HSV-2; experiment: Infectious viral yield, HSV-1/HSV-2 in Vero cells (text, type not separated); assay type: cell-based
[3] = system: HSV-1/HSV-2; experiment: CPE inhibition test, microscopic, HSV-1/HSV-2 in Vero cells (type not separated); assay type: cell-based; settings: infected Vero cells, at MNC, 72 hours of treatment
Protocol: Dose-dependent curves were derived to determine the inhibitory concentration leading to 50% inhibition of the viral cytopathic effect (IC50).
Initially, the antiviral activity of the IPF test substance was assessed by a CPE inhibition test. […] Cell cultures were observed daily under a light microscope as to theCPE development. […] The results of the experiments were evaluated on the basis of comparison with virus-free and no-added cells (cell control),and with cells infected with HSV-1/HSV-2 without substance addition (viral control).

[4] = system: Vero cells; experiment: Cytotoxicity on Vero cells, MTT Assay; settings: 72 h
Protocol: Using the solution, a series of dilutions are done ex tempore with a nutrient medium DMEM (Dulbecco's Modified Eagle Medium, Sigma-Aldrich, Germany), which includes 2% fetal bovine serum (FBS, Gibco) and 1% antibiotic solution (100 U/ml penicillin and 100 µg/ml streptomycin sulphate (Gibco, USA)) (working solutions), which solutions are then filtered through sterile antibacterial filters with a pore diameter of 0.45 µm. As a model system in the tests was used a kidney monolayer cell line of African Green Monkey (Cercopithecus aethiops).
Cells were cultured on DMEM nutrient medium with termoinactivated 10% FBS, 1% sodium pyruvate (Sigma- Aldrich, Germany) and antibiotics (penicillin (100 U/ml), streptomycin sulphate (100 µg/ml) (growingmedium). The cell cultures were incubated at 37 °C at 5% CO2 and the required humidity. The blending of the Vero cells was done at 1:3 - 1:5 at a density of about 2 × 10^5 cells/ml, then resuspended several times and transferred onto cell culture mattresses (25 cm^2). Before inoculating the cells with virus and/or IPF-H2A dilutions, the monolayer was washed three times with phosphate-buffered saline (PBS) with pH 7.4 for 1- 2 minutes, after which the solution was removed. All experiments were performed during the exponential phase of cell growth. […]

[5] = system: HSV-1 (Victoria strain); experiment: Infectious viral yield of HSV-1 in Vero cells (Reed and Muench titration)
Protocol: (§1) Viral strains were cultured in DMEM nutrient medium containing 2% FBS,1% antibiotic solution (100 U/ml penicillin G sodium and 100 µg/ml streptomycin sulphate).
(§2) Infectious virus titer was account for, also by Reed and Muench's method of final dilutions, and expressed as TCID50 (50% Tissue Culture Infectious Dose) and also quantitatively through the colorimetric MTT method. After triple freezing and thawing, the resulting virus- containing was centrifuged (2500 rpm/min, 15 min at 4 °C), aliquoted and frozen at -80°C.
(§3) Immediately prior to work, ten-fold logarithmic dilutions of the relevant virus strain were prepared in DMEM nutrient medium containing 2% FBS, 1% antibiotic solution (100 U/mL penicillin G sodium and 100 µg/mL streptomycin sulphate). When the cell monolayer reached between 70- 80% confluence (concentration 5 × 10^3 cells/well, usually after 24 h), the nutrient medium was removed from the wells. The cell monolayer was infected with the prepared viral dilutions of 0.1 mL. With each viral dilution, 4 wells were infected. The virus was adsorbed for 1 h ina thermostat at a temperature of 37°C, then to each well was added 0.1 mL of nutrient medium. Four wells containing uninfected cells were used for cell control. Thus treated plate was incubated in a thermostat at a temperature of 37°C and at the required humidity. In the event of a cytopathic effect (CPE) (appearance of round cells, unevenly disseminated in the cell monolayer, with a tendency to formfoci), it was waited until the development of 2-3 + (50 - 75% of the cell monolayer) or until it stopped progressing. The viral infection titer is expressed as TCID50 (50% Tissue Culture Infectious Dose). The presence or absence of a viral cytopathic effect is determined by the following formula: T = (logofdilution,where%infectedisover50%) + (proportionalityfactor×logofdilutionfactor). […] Proportionality factor = [(%infectedover50%)−50%][(%infectedover50%)−(% infected below; 50%)].
(§4) Extracellular virus samples were titrated in a 24-hour Vero monolayer in 96-well plates, by taking into account the infectious viral titer in log10, according to the final dilution method of Reed & Muenh. Differences in infectious viral titers between experimental and control samples are expressed as Δlog. Based on the reported results, dose-response graphs were plotted and minimum inhibitory concentrations 50 (MIC50) were determined. Values of Δlog10 ≥ 1 are considered to be reliable results for the performed tests.

[6] = system: HSV-2 (Bja strain); experiment: Infectious viral yield of HSV-2 in Vero cells (Reed and Muench titration)
Protocol: as §1, §2, §3, §4

[7] = system: Vero cells; experiment: Cytotoxicity on Vero cells, microscopic observation of cell monolayer morphology; settings: 72 h
Protocol: For analysis of the anti-proliferative and potentially antiviral properties of the IPF-H2A complex, according to the present invention, in cell culture, IPF-H2A was dissolved to an initial concentration of 50 mg/ml (background solution). Using the solution, a series of dilutions are done ex tempore with a nutrient medium DMEM (Dulbecco's Modified Eagle Medium, Sigma-Aldrich, Germany), which includes 2% fetal bovine serum (FBS, Gibco) and 1% antibiotic solution (100 U/ml penicillin and 100 µg/ml streptomycin sulphate (Gibco, USA)) (working solutions), which solutions are then filtered through sterile antibacterial filters with a pore diameter of 0.45 µm. As a model system in the tests was used a kidney monolayer cell line of African Green Monkey (Cercopithecus aethiops). […]

[8] = system: HCoV-229E; assay type: cell-based, human coronavirus HCoV-229E; settings: for Δlog10: HCoV-229E, vs virus control
[9] = system: HCoV-229E; assay type: cell-based, human coronavirus HCoV-229E
[10] = system: human embryonic lung (Lep) cell line; experiment: Cytotoxicity on Lep cells, MTT test; parameters: CD50: unit not given beside the values
[11] = system: human embryonic lung (Lep) cell line; experiment: Cytotoxicity on Lep cells, microscopic surveillance of cell monolayer morphology; settings: 96 hours
Protocol: As a model system is used monolayer of human embryonic lung (Lep) cell line. The cells are cultivated in DMEM with added thermally inactivated 10% FBS, 1% Sodium pyruvate (Sigma-Aldrich, Germany) and antibiotics (penicillin- 100 U/ml), streptomycin sulphate (100 µg/ml) (growth medium) and the cell cultures are incubated at 37°C in 5% CO2 and in the presence of the required humidity.
MTT analysis of the cell survival and proliferation was performed in a wide range of concentrations of the tested substance. […] The test substance is applied in concentration range 0.0001- 1 mg/ml, while the anti-nfluenza medicine Tamiflu® - 0.001- 7.5 mg/ml for 96 hours. The untreated Lep cells whose survival was accepted as 100%, were used as a negative control. […] The analysis of the cell morphology surveillance is synchronized with the MTT analysis of the cell surveillance.

## Nc1nc2c(ncn2COCCO)c(=O)[nH]1 [ACV, 2-amino-1,9-dihydro-9-((2-hydroxyethoxy)methyl)-6H-purin-6-one]
[1]; HSV-1 (Victoria strain), Vero cells, MTT Assay
  % cellular protection at MNC: 100%
[1]; HSV-1 strain Victoria, concentration range of 0.0005- 0.01 mg/mL
  protection: 100%
[2]
  concentration range that effectively inhibits the yield of infectious viral progeny / replication: 0.00001 to 1 mg/mL
[3]
  CPE suppression of HSV-1/HSV-2: less pronounced CPE inhibitory effect
[4]
  CD50: 0.5 ± 0.1 mg/mL
[5]; concentration 0.0005 mg/mL
  Viral yield (log10 TCID50): 4.500 ± 0.763 log10 TCID50
  Δlog10: 0.8
[5]; concentration 0.005 mg/mL
  Viral yield (log10 TCID50): 4.530 ± 0.166 log10 TCID50
  Δlog10: 0.8
[5]; concentration 0.05 mg/mL
  Viral yield (log10 TCID50): 4.300 ± 0.763 log10 TCID50
  Δlog10: 1.0
[5]; concentration 0.1 mg/mL
  Viral yield (log10 TCID50): 4.000 ± 0.288 log10 TCID50
  Δlog10: 1.6
[5]; concentration 1 mg/mL
  Viral yield (log10 TCID50): 2.7 ± 0.500 log10 TCID50
  Δlog10: 2.6
[6]; concentration 0.0005 mg/mL
  Viral yield (log10 TCID50): 5.567 ± 0.000 log10 TCID50
[6]; concentration 0.005 mg/mL
  Viral yield (log10 TCID50): 5.300 ± 0.288 log10 TCID50
  Δlog10: 0.8
[6]; concentration 0.05 mg/mL
  Viral yield (log10 TCID50): 4.500 ± 0.125 log10 TCID50
  Δlog10: 1.0
[6]; concentration 0.1 mg/mL
  Viral yield (log10 TCID50): 4.300 ± 0.237 log10 TCID50
  Δlog10: 1.0
[6]; concentration 1 mg/mL
  Viral yield (log10 TCID50): 4.005 ± 0.166 log10 TCID50
  Δlog10: 1.3
[7]
  CD50: 0.5 ± 0.02 mg/mL

## CCOC(=O)C1=C[C@@H](OC(CC)CC)[C@H](NC(C)=O)[C@@H](N)C1 [Tamiflu, oseltamivir phosphate]
[8]
  concentration range that effectively inhibits the infectious viral yield / replication: 0.00001 to 1 mg/mL
[8]; concentration 0.0001 mg/ml
  Δlog10: 0.8
[8]; concentration 0.001 mg/ml
  Δlog10: 1.3
[8]; concentration 0.01 mg/ml
  Δlog10: 1.3
[8]; concentration 0.1 mg/ml
  Δlog10: 1.3
[8]; concentration 1.0 mg/ml
  Δlog10: 1.8
[9]
  inhibition of CPE of HCoV-229E: Less expressed CPE inhibition
[10]; 96 hours, MTT test
  CD50: 2.5 ±0.06
  MNC: 0.005 ± 0.15 mg/mL
[10]; comparison of cell survival data
  toxicity relative to IPF-H2A peptide complex: twentyfold more toxic
[11]
  CD50: 2.5 ±0.02
  MNC: 0.001 ± 0.6 mg/mL
